In US11008340B2, “Modulators of ROR-gamma” (Vitae Pharmaceuticals, LLC, priority 2015, dated 2021):

molecular target: T1, recombinant RORγ Ligand Binding Domain (LBD) protein (Homo sapiens, UniProt P51449); test: Radio-Ligand RORγ Binding Assay (Assay 1); settings: radio-ligand competition, 25-hydroxy [26,27-3H]-cholesterol, RORγ LBD; read-out: Avg ROR Bind Ki
T1 construct: 6×His; GST
T1 sequence (P51449 269-508 limits assumed): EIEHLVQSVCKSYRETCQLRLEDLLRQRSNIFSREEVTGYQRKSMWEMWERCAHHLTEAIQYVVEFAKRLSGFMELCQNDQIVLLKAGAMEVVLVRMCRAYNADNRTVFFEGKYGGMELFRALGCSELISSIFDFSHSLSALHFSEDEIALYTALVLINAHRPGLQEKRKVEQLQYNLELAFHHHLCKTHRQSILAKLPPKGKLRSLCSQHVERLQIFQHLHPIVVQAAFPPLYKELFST
Procedure: Radio-Ligand RORγ Binding Assay (Assay 1)
Compounds described herein were tested for ability to bind to RORγ in a cell-free competition assay with commercially available radio-ligand (RL), 25-hydroxy [26,27-^3H]-cholesterol (PerkinElmer, Cat. #NET674250UC), for a ligand binding site on a recombinant RORγ Ligand Binding Domain (LBD) protein expressed as a 6×His-Glutathione-S-Transferase (GST) fusion. The assay was performed in 96-well SPA plates (PerkinElmer, Cat. #1450-401) in 50 mM HEPES buffer, pH 7.4, containing 150 mM NaCl, 5 mM MgCl2, 10% (v/v) glycerol, 2 mM CHAPS, 0.5 mM 3-octylglucopyranoside and 5 mM DTT. Tested compounds were dissolved in DMSO, and semi-log (3.162×) serial dilutions of the compounds were prepared in the same solvent. Two μL of the DMSO solutions were mixed with 28 μL of 8.6 nM 25-hydroxy [26,27-^3H]-cholesterol and 50 μL of 24 nM RORγ LBD. The plate was shaken at 700 rpm for 20 min and incubated for 10 min at rt, after which 40 μL of poly-Lys YSi SPA beads (PerkinElmer, Cat. #RPNQ0010) were added to achieve 50 μg of the beads per well. The plate was incubated on an orbital shaker for 20 min and then for 10 min without agitation at rt. SPA signal for tritium beta radiation was registered on PerkinElmer Microbeta plate reader. […] The percent inhibition vs. concentration data were fit into a four-parameter model, and IC50 values were calculated from the fit as the concentrations corresponding to the inflection points on the dose-response curves. Inhibitory constants (Ki) were calculated using the following equation, where [RL] is the concentration in the assay and KD is a dissociation constant of 25-hydroxy [26,27-^3H]-cholesterol: […]

SMILES | Ki
CC1c2ccc(C(=O)NCc3ccc(S(C)(=O)=O)cc3)cc2CCN1Cc1ccc(F)cc1 (racemic) [Hy2A-6, 2-(4-fluorobenzyl)-1-methyl-N-(4-(methylsulfonyl)benzyl)-1,2,3,4-tetrahydroisoquinoline-6-carboxamide] | > 1 µM
CC1c2ccc(C(=O)NCc3ccc(S(C)(=O)=O)cc3)cc2CCN1Cc1ccc(C#N)cc1 (racemic) [Hy2A-7, 2-(4-cyanobenzyl)-1-methyl-N-(4-(methylsulfonyl)benzyl)-1,2,3,4-tetrahydroisoquinoline-6-carboxamide] | > 1 µM
CCS(=O)(=O)c1ccc(CNC(=O)c2ccc3c(c2)CCN(Cc2ccc(F)cc2)C3C)cc1 (racemic) [Hy2A-8, N-(4-(ethylsulfonyl)benzyl)-2-(4-fluorobenzyl)-1-methyl-1,2,3,4-tetrahydroisoquinoline-6-carboxamide] | 0.1 to 1 µM
CCS(=O)(=O)c1ccc(CNC(=O)c2ccc3c(c2)CCN(Cc2ccc(C#N)cc2)C3C)cc1 (racemic) [Hy2A-10, 2-(4-cyanobenzyl)-N-(4-(ethylsulfonyl)benzyl)-1-methyl-1,2,3,4-tetrahydroisoquinoline-6-carboxamide] | 0.1 to 1 µM
CCS(=O)(=O)c1ccc(CNC(=O)c2ccc3c(c2)CCN(c2ncc(C#N)cn2)[C@@H]3C(C)C)cc1 (single isomer, unassigned) [Hy2A-1.1] | 0.1 to 1 µM
CCS(=O)(=O)c1ccc(CNC(=O)c2ccc3c(c2)CCN(c2ncc(C#N)cn2)[C@H]3C(C)C)cc1 (single isomer, unassigned) [Hy2A-1.2] | 0.1 to 1 µM
CCOC(=O)c1cnc(N2CCc3cc(C(=O)NCc4ccc(S(=O)(=O)CC)cc4)ccc3[C@@H]2C(C)C)nc1 (single isomer, unassigned) [Hy2A-4.1] | 0.1 to 1 µM
CCOC(=O)c1cnc(N2CCc3cc(C(=O)NCc4ccc(S(=O)(=O)CC)cc4)ccc3[C@H]2C(C)C)nc1 (single isomer, unassigned) [Hy2A-4.2] | 0.1 to 1 µM
CCOC(=O)c1cnc(N2CCc3cc(C(=O)NCc4ccc(S(=O)(=O)CC)cc4)ccc3[C@H]2C(C)C)nc1C(F)(F)F (single isomer, unassigned) [Hy2A-5.2] | 0.1 to 1 µM
CCS(=O)(=O)c1ccc(CNC(=O)c2ccc3c(c2)CCN(Cc2ncc(C)cn2)[C@@H]3C(C)C)cc1 (single isomer, unassigned) [Hy2A-12.2] | > 1 µM
CCS(=O)(=O)c1ccc(CNC(=O)c2ccc3c(c2)CCN(Cc2ccc(C#N)cc2)[C@@H]3C(C)C)cc1 (single isomer, unassigned) [Hy2A-15.2] | < 0.1 µM
CCS(=O)(=O)c1ccc(CNC(=O)c2ccc3c(c2)CCN(Cc2ccc(C#N)cn2)[C@@H]3C(C)C)cc1 (single isomer, unassigned) [Hy2A-16.2] | 0.1 to 1 µM
CCS(=O)(=O)c1ccc(CNC(=O)c2ccc3c(c2)CCN(Cc2ccc(C#N)nc2)[C@@H]3C(C)C)cc1 (single isomer, unassigned) [Hy2A-17.2] | 0.1 to 1 µM
CCS(=O)(=O)c1ccc(CNC(=O)c2ccc3c(c2)C(C)(C)CN(Cc2cnc(C)cn2)[C@@H]3C(C)C)cc1 (single isomer, unassigned) [Hy2A-22.2] | 0.1 to 1 µM
CCS(=O)(=O)c1ccc(CNC(=O)c2ccc3c(c2)CCN(Cc2ccc(OC(F)F)nc2)[C@@H]3C(C)C)cc1 (single isomer, unassigned) [Hy2A-25.2] | 0.1 to 1 µM
CCS(=O)(=O)c1ccc(CNC(=O)c2ccc3c(c2)CCN(Cc2ncc(Br)cn2)[C@@H]3C(C)C)cc1 (single isomer, unassigned) [Hy2A-26.2] | 0.1 to 1 µM
CCC1c2ccc(C(=O)NC(CO)c3ccc(S(=O)(=O)CC)cc3)cc2CCN1CC1CCC(C(F)(F)F)CC1 (single isomer, unassigned) [Hy2A-28.3] | 0.1 to 1 µM
CCS(=O)(=O)c1ccc(CNC(=O)c2ccc3c(c2)CN(c2ncc(C#N)cn2)C[C@@H]3C(C)C)cc1 (single isomer, unassigned) [Hy7-2.2] | 0.1 to 1 µM
CCOc1cnc(N2Cc3cc(C(=O)NCc4ccc(S(=O)(=O)CC)cc4)ccc3[C@@H](C(C)C)C2)nc1 (single isomer, unassigned) [Hy7-5.2] | 0.1 to 1 µM
CC[C@@H]1CN(c2ncc(C(F)(F)F)cn2)Cc2cc(C(=O)NCc3ccc(S(=O)(=O)CC)cn3)ccc21 (single isomer, unassigned) [Hy7-10.2] | 0.1 to 1 µM
CCS(=O)(=O)c1ccc(CNC(=O)c2ccc3c(c2)CN(c2ncc(C(F)(F)F)cn2)C[C@@H]3C(C)C)cc1 (single isomer, unassigned) [Hy7-15.2] | < 0.1 µM
CCOC(=O)c1cnc(N2Cc3cc(C(=O)NCc4ccc(S(=O)(=O)CC)cc4)ccc3[C@@H](C(C)C)C2)nc1 (single isomer, unassigned) [Hy7-16.2] | 0.1 to 1 µM
CC[C@H]1CN(c2ncc(C(F)(F)F)cn2)Cc2cc(C(=O)N[C@@H](CO)c3ccc(S(=O)(=O)CC)cn3)ccc21 (single isomer, unassigned) [Hy7-18.3] | 0.1 to 1 µM
CCS(=O)(=O)c1ccc(CNC(=O)c2ccc3c(c2)CN(c2ncc(N4CCOCC4)cn2)C[C@H]3C(C)C)cc1 (single isomer, unassigned) [Hy7-19.1] | 0.1 to 1 µM
CCS(=O)(=O)c1ccc(CNC(=O)c2ccc3c(c2)CN(c2ncc(N4CCOCC4)cn2)C[C@@H]3C(C)C)cc1 (single isomer, unassigned) [Hy7-19.2] | > 1 µM
CC[C@H]1CN(c2ncc(-c3cccc(OC)n3)cn2)Cc2cc(C(=O)NCc3ccc(S(=O)(=O)CC)cc3)ccc21 (single isomer, unassigned) [Hy7-20.2] | 0.1 to 1 µM
CCS(=O)(=O)c1ccc(CNC(=O)c2ccc3c(c2)CN(c2ncc(-c4ccc(=O)[nH]c4)cn2)C[C@@H]3C(C)C)cc1 (single isomer, unassigned) [Hy7-21.2] | > 1 µM

same assay, conditions: radio-ligand competition, RORγ LBD; head without unit (Tables 15, 17); read-out: Avg ROR Bind Ki

SMILES | Ki
CCS(=O)(=O)c1ccc(CNC(=O)c2cnc3c(c2)CCN(c2ncc(C#N)cn2)[C@H]3C(C)C)cc1 (single isomer, unassigned) [Hy2B-1.1] | > 1 µM
CCS(=O)(=O)c1ccc(CNC(=O)c2cnc3c(c2)CCN(c2ncc(C#N)cn2)[C@@H]3C(C)C)cc1 (single isomer, unassigned) [Hy2B-1.2] | > 1 µM
CCS(=O)(=O)c1ccc(CNC(=O)c2cnc3c(c2)CCN(c2ncc(Cl)cn2)[C@H]3C(C)C)cc1 (single isomer, unassigned) [Hy2B-2.1] | 0.1 to 1 µM
CCS(=O)(=O)c1ccc(CNC(=O)c2cnc3c(c2)CCN(c2ncc(Cl)cn2)[C@@H]3C(C)C)cc1 (single isomer, unassigned) [Hy2B-2.2] | > 1 µM
CCS(=O)(=O)c1ccc(CNC(=O)c2cnc3c(c2)CCN(c2ncc(C(F)(F)F)cn2)[C@H]3C(C)C)cc1 (single isomer, unassigned) [Hy2B-3.1] | 0.1 to 1 µM
CCS(=O)(=O)c1ccc(CNC(=O)c2cnc3c(c2)CCN(c2ncc(C(F)(F)F)cn2)[C@@H]3C(C)C)cc1 (single isomer, unassigned) [Hy2B-3.2] | 0.1 to 1 µM
CCOC(=O)c1cnc(N2CCc3cc(C(=O)NCc4ccc(S(=O)(=O)CC)cc4)cnc3[C@H]2C(C)C)nc1 (single isomer, unassigned) [Hy2B-4.1] | > 1 µM
CCOC(=O)c1cnc(N2CCc3cc(C(=O)NCc4ccc(S(=O)(=O)CC)cc4)cnc3[C@@H]2C(C)C)nc1 (single isomer, unassigned) [Hy2B-4.2] | > 1 µM
CCOC(=O)c1cnc(N2CCc3cc(C(=O)NCc4ccc(S(=O)(=O)CC)cc4)cnc3[C@H]2C(C)C)nc1C(F)(F)F (single isomer, unassigned) [Hy2B-5.1] | 0.1 to 1 µM
CCOC(=O)c1cnc(N2CCc3cc(C(=O)NCc4ccc(S(=O)(=O)CC)cc4)cnc3[C@@H]2C(C)C)nc1C(F)(F)F (single isomer, unassigned) [Hy2B-5.2] | 0.1 to 1 µM
CCS(=O)(=O)c1ccc(CNC(=O)c2cnc3c(c2)CCN(Cc2ccc(F)cc2)C3C(C)C)cc1 (single isomer, unassigned) [Hy2B-6.2] | 0.1 to 1 µM
CCS(=O)(=O)c1ccc(CNC(=O)c2cnc3c(c2)CCN(Cc2ccc(C#N)cc2)C3C(C)C)cc1 (single isomer, unassigned) [Hy2B-7.2] | > 1 µM
CCS(=O)(=O)c1ccc(CNC(=O)c2cnc3c(c2)CCN(Cc2ccc(Cl)cc2)C3C(C)C)cc1 (single isomer, unassigned) [Hy2B-8.2] | 0.1 to 1 µM
CCS(=O)(=O)c1ccc(CNC(=O)c2cnc3c(c2)CCN(C[C@H]2CC[C@H](C(F)(F)F)CC2)[C@@H]3C(C)C)cc1 (single isomer, unassigned) [Hy2B-9.2] | 0.1 to 1 µM
CCS(=O)(=O)c1ccc(CNC(=O)c2cnc3c(c2)CCN(C[C@H]2CC[C@H](C(F)(F)F)CC2)[C@@H]3C(C)C)nc1 (single isomer, unassigned) [Hy2B-10.2] | 0.1 to 1 µM
